Reference: paper PMC9977294, “A parasitic fungus employs mutated eIF4A to survive on rocaglate-synthesizing Aglaia plants” (eLife, 2023)
Values joined by “and” are separate entries in the source; they are usually repeats but may differ in a detail not shown here. Equal entries are not always repeated. Where two headings read alike, the source gives them in different places.

What was measured:
[1] = biological target: T1, O. sinensis eIF4A WT His154 (Ophiocordyceps sinensis, UniProt A0A8H4LTQ8); experiment: Fluorescence polarization assay, FAM-labeled [AG]10 RNA and recombinant eIF4A; format: binding; settings: for Kd: [AG]10 10 nM, compound 50 µM, read-out: Kd between eIF4A protein and RNA
T1 sequence (A0A8H4LTQ8 1-397): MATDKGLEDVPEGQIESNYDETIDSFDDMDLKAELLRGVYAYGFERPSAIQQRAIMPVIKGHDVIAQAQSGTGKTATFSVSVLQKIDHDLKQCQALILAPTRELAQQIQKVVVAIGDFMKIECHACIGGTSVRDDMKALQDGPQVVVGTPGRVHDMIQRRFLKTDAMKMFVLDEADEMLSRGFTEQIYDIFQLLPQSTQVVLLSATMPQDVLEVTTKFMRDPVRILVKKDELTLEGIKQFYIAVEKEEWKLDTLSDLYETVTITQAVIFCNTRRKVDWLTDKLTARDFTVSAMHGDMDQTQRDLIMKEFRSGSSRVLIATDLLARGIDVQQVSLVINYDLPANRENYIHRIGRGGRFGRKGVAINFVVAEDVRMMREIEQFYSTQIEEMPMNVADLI

[2] = biological target: T2, O. sinensis eIF4A His154Gly (Ophiocordyceps sinensis, UniProt A0A8H4LTQ8, H154G); experiment: as above; format: binding; settings: for Kd: [AG]10 10 nM, compound 50 µM, read-out: Kd between eIF4A protein and RNA
T2 sequence (A0A8H4LTQ8 1-397 H154G): T1 sequence (A0A8H4LTQ8 1-397)

[3] = [AG]10, ADP + Pi, RocA 50 µM, protein 0.01 μM
[4] = [AG]10, ADP + Pi, RocA 50 µM, protein 0.05 μM
[5] = [AG]10, ADP + Pi, RocA 50 µM, protein 0.075 μM
[6] = [AG]10, ADP + Pi, RocA 50 µM, protein 0.1 μM
[7] = [AG]10, ADP + Pi, RocA 50 µM, protein 0.5 μM
[8] = [AG]10, ADP + Pi, RocA 50 µM, protein 0.75 μM
[9] = [AG]10, ADP + Pi, RocA 50 µM, protein 1 μM
[10] = [AG]10, ADP + Pi, RocA 50 µM, protein 5 μM
[11] = [AG]10, ADP + Pi, RocA 50 µM, protein 7.5 μM
[12] = [AG]10, ADP + Pi, RocA 50 µM, protein 10 μM
[13] = [AG]10, ADP + Pi, RocA 50 µM, protein 25 μM
[14] = [AG]10, ADP + Pi, RocA 50 µM, protein 50 μM
[15] = [AG]10 RNA, AMP-PNP, RocA, protein concentration 0.01 μM
[16] = [AG]10 RNA, AMP-PNP, RocA, protein concentration 0.05 μM
[17] = [AG]10 RNA, AMP-PNP, RocA, protein concentration 0.075 μM
[18] = [AG]10 RNA, AMP-PNP, RocA, protein concentration 0.1 μM
[19] = [AG]10 RNA, AMP-PNP, RocA, protein concentration 0.5 μM
[20] = [AG]10 RNA, AMP-PNP, RocA, protein concentration 0.75 μM
[21] = [AG]10 RNA, AMP-PNP, RocA, protein concentration 1 μM
[22] = [AG]10 RNA, AMP-PNP, RocA, protein concentration 5 μM
[23] = [AG]10 RNA, AMP-PNP, RocA, protein concentration 7.5 μM
[24] = [AG]10 RNA, AMP-PNP, RocA, protein concentration 10 μM
[25] = [AG]10 RNA, AMP-PNP, RocA, protein concentration 25 μM
[26] = [AG]10 RNA, AMP-PNP, RocA, protein concentration 50 μM

COc1ccc([C@@]23Oc4cc(OC)cc(OC)c4[C@]2(O)[C@H](O)[C@H](C(=O)N(C)C)[C@H]3c2ccccc2)cc1 [RocA, rocaglamide A]
Kd ([1]; ADP + Pi (1 mM each)): ~0.11 µM and 0.11 µM | Kd ([1]; AMP-PNP 1 mM): 0.09 ± 0.014 µM | fluorescence polarization, replicates [1, 3]: 0.1995 | fluorescence polarization, Mean [1, 4]: 0.4699 | fluorescence polarization, replicates [1, 4]: 0.5109 and 0.4536 | fluorescence polarization, Mean [1, 5]: 0.6066 | fluorescence polarization, replicates [1, 5]: 0.6585 | fluorescence polarization, Mean [1, 6]: 0.7049 | fluorescence polarization, replicates [1, 6]: 0.7732 and 0.6667 | fluorescence polarization, Mean [1, 7]: 1.713 | fluorescence polarization, replicates [1, 7]: 1.781 and 1.675 and 1.683 | fluorescence polarization, Mean [1, 8]: 1.757 | fluorescence polarization, replicates [1, 8]: 1.724 (2×) and 1.8224 | fluorescence polarization, Mean [1, 9]: 1.82 | fluorescence polarization, replicates [1, 9]: 1.8224 (2×) and 1.814 | fluorescence polarization, Mean [1, 10]: 1.888 | fluorescence polarization, replicates [1, 10]: 1.913 and 1.872 and 1.88 | fluorescence polarization, Mean [1, 11]: 1.883 | fluorescence polarization, replicates [1, 11]: 1.855 and 1.904 and 1.888 | fluorescence polarization, Mean [1, 12]: 1.893 | fluorescence polarization, replicates [1, 12]: 1.921 and 1.896 and 1.863 | fluorescence polarization, Mean [1, 13]: 1.861 | fluorescence polarization, replicates [1, 13]: 1.863 and 1.913 and 1.806 | fluorescence polarization, Mean [1, 14]: 1.801 | fluorescence polarization, replicates [1, 14]: 1.814 and 1.798 and 1.79 | Fluorescence polarization, Replicate 1-3 [1, 15]: 0.1557 and 0 | fluorescence polarization, Mean [1, 15]: 0.09016 | Fluorescence polarization, Replicate 1-3 [1, 16]: 0.5246 (2×) and 0.418 | fluorescence polarization, Mean [1, 16]: 0.4891 | Fluorescence polarization, Replicate 1-3 [1, 17]: 0.5328 and 0.6803 | fluorescence polarization, Mean [1, 17]: 0.6175 | Fluorescence polarization, Replicate 1-3 [1, 18]: 0.8689 and 0.8033 and 0.7049 | fluorescence polarization, Mean [1, 18]: 0.7923 | Fluorescence polarization, Replicate 1-3 [1, 19]: 1.713 (2×) and 1.631 | fluorescence polarization, Mean [1, 19]: 1.686 | Fluorescence polarization, Replicate 1-3 [1, 20]: 1.795 and 1.7459 and 1.77 | fluorescence polarization, Mean [1, 20]: 1.77 | Fluorescence polarization, Replicate 1-3 [1, 21]: 1.861 and 1.836 and 1.779 | fluorescence polarization, Mean [1, 21]: 1.825 | Fluorescence polarization, Replicate 1-3 [1, 22]: 1.787 and 1.828 and 1.811 | fluorescence polarization, Mean [1, 22]: 1.809 | Fluorescence polarization, Replicate 1-3 [1, 23]: 1.869 and 1.877 and 1.844 | fluorescence polarization, Mean [1, 23]: 1.863 | Fluorescence polarization, Replicate 1-3 [1, 24]: 1.836 and 1.7459 and 1.795 | fluorescence polarization, Mean [1, 24]: 1.792 | Fluorescence polarization, Replicate 1-3 [1, 25]: 1.902 and 1.77 and 1.779 | fluorescence polarization, Mean [1, 25]: 1.817 | Fluorescence polarization, Replicate 1-3 [1, 26]: 1.852 and 1.787 and 1.77 | fluorescence polarization, Mean [1, 26]: 1.803 | Kd ([2]; ADP + Pi (1 mM each)): 0.85 ± 0.12 µM | Kd ([2]; AMP-PNP 1 mM): 0.37 ± 0.046 µM | fluorescence polarization, Mean [2, 3]: 0.06011 | fluorescence polarization, replicates [2, 3]: -0.02732 | fluorescence polarization, Mean [2, 4]: 0.1202 | fluorescence polarization, replicates [2, 4]: 0.1284 | fluorescence polarization, Mean [2, 5]: 0.1339 | fluorescence polarization, replicates [2, 5]: 0.1284 and 0.1612 and 0.112 | fluorescence polarization, Mean [2, 6]: 0.1639 | fluorescence polarization, replicates [2, 6]: 0.2104 and 0.1284 and 0.153 | fluorescence polarization, Mean [2, 7]: 0.6885 | fluorescence polarization, replicates [2, 7]: 0.6858 and 0.5956 | fluorescence polarization, Mean [2, 8]: 0.6093 | fluorescence polarization, replicates [2, 8]: 0.5874 and 0.6038 | fluorescence polarization, Mean [2, 9]: 0.8743 | fluorescence polarization, replicates [2, 9]: 0.9071 and 0.9481 | fluorescence polarization, Mean [2, 10]: 1.648 | fluorescence polarization, replicates [2, 10]: 1.628 and 1.6612 and 1.653 | fluorescence polarization, Mean [2, 11]: 1.617 | fluorescence polarization, replicates [2, 11]: 1.6776 and 1.53 and 1.645 | fluorescence polarization, Mean [2, 12]: 1.686 | fluorescence polarization, replicates [2, 12]: 1.612 and 1.735 and 1.71 | fluorescence polarization, Mean [2, 13]: 1.735 | fluorescence polarization, replicates [2, 13]: 1.76 and 1.751 and 1.694 | fluorescence polarization, Mean [2, 14]: 1.7459 | fluorescence polarization, replicates [2, 14]: 1.735 and 1.76 and 1.743 | Fluorescence polarization, Replicate 1-3 [2, 15]: 0.04372 and 0.1339 and -0.005464 | fluorescence polarization, Mean [2, 15]: 0.05738 | Fluorescence polarization, Replicate 1-3 [2, 16]: 0.06831 and 0.1421 and -0.03005 | fluorescence polarization, Mean [2, 16]: 0.06011 | Fluorescence polarization, Replicate 1-3 [2, 17]: 0.06831 and 0.1339 and 0.1503 | fluorescence polarization, Mean [2, 17]: 0.1175 | Fluorescence polarization, Replicate 1-3 [2, 18]: 0.1667 and 0.0847 and 0.1995 | fluorescence polarization, Mean [2, 18]: 0.1503 | Fluorescence polarization, Replicate 1-3 [2, 19]: 1.142 and 1.044 and 0.9536 | Fluorescence polarization, Replicate 1-3 [2, 20]: 0.9454 and 1.044 and 0.9126 | fluorescence polarization, Mean [2, 20]: 0.9672 | Fluorescence polarization, Replicate 1-3 [2, 21]: 1.175 and 1.167 and 1.109 | Fluorescence polarization, Replicate 1-3 [2, 22]: 1.5847 and 1.5765 and 1.601 | fluorescence polarization, Mean [2, 22]: 1.587 | Fluorescence polarization, Replicate 1-3 [2, 23]: 1.511 and 1.56 and 1.601 | fluorescence polarization, Mean [2, 23]: 1.557 | Fluorescence polarization, Replicate 1-3 [2, 24]: 1.675 and 1.56 and 1.667 | fluorescence polarization, Mean [2, 24]: 1.634 | Fluorescence polarization, Replicate 1-3 [2, 25]: 1.5847 and 1.699 and 1.626 | fluorescence polarization, Mean [2, 25]: 1.637 | Fluorescence polarization, Replicate 1-3 [2, 26]: 1.65 and 1.626 and 1.691 | fluorescence polarization, Mean [2, 26]: 1.656
